Measured values taken from patent US11945811B2, “Potassium channel inhibitors” (ACESION PHARMA APS, priority 2021, dated 2024).

Target: T1, human SK3 channel (hKCa2.3) (Homo sapiens, UniProt Q9UGI6)
T1 construct: expressed in transfected cells
Assay: Automated patch clamping (QPatch 16 HT whole-cell recordings)
Assay type: cell-based
Conditions: HEK-293 cells stably expressing hKCa2.3; currents measured at −80 mV; normalized to N-methyl bicuculline; read-out: IC50 in the Automated patch clamping assay (SK3 channel inhibition)
Experimental: Automated whole cell patch-clamp recordings were performed using a QPatch 16 HT system and single-hole Qplates (Sophion, Denmark) on HEK-293 cells stably expressing the human SK3 channel (hKCa2.3). Cells were cultured and prepared for experiments using normal cell culturing procedures. A total of 4-5 million cells were used per experiment. The Qpatch automatically generates giga sealing, whole-cell formation, compound application and recording of current. hKCa2.3 currents were recorded in symmetrical K^+ solutions. The intracellular/pipette solution contained 154 mM KCl, 10 mM HEPES and 10 mM EGTA. CaCl2 is added to give calculated free concentrations of Ca^2+ of 0.4 μM and MgCl2 is added to give a free concentration of 1 mM. In order to maintain a total [K^+] of 156 mM (corresponding to the concentration in the extracellular ringer) a fixed amount of KOH (15 mM) is added, thereafter pH is adjusted with HCl to pH=7.2. Expected osmolarity: 275 mOsm. Sucrose was added to a final osmolarity around 295 mosm. The extracellular solution consisted of (in mM): CaCl2 0.1, MgCl2 3, KCl 150, HEPES 10 and glucose 10, pH=7.4 adjusted with KOH. Osmolarity between 285-295 mosm. The cells were held at 0 mV and hKCa2.3 currents were elicited by a linear voltage ramp from −80 mV to +80 mV (200 ms in duration) applied every 5th second.
The compound application protocol consisted of 12 recording periods lasting 200 s: 1) Baseline recordings in extracellular solution; 2) Application of the positive control N-methyl bicuculline (100 μM), which is characterized by full efficacy, fast on- and off-rate; 3-4) Wash-out; 5-10) Increasing concentrations of test compound to establish an IC50 value; 11-12) Wash-out; 13) positive control with compound NS8593 (N-[(1R)-1,2,3,4-tetrahydro-1-naphthalenyl]-1H-benzimidazol-2-amine) (1 μM) or with N-methyl bicuculline (100 μM). Data were sampled at 10 kHz, 4th order Bessel filter, cut-off frequency 3 kHz. Currents were compensated for run-down. Potency was quantified as the concentration needed to inhibit half of the SK channel activity and reported as an IC50 value.
All effects of compounds of the present invention as tested were normalized to the observed inhibitory effect of N-methyl bicuculline. Currents were measured at −80 mV.

IC50 [µM] | SMILES
< 1 | CC(CO)(Nc1nc2c(Cn3ccoc3=N)cccc2[nH]1)c1cccc(OC(F)(F)F)c1 (single isomer, unassigned; (+)) [Example 27a, (+)-2-({4-[(2-imino-2,3-dihydro-1,3-oxazol-3-yl)methyl]-1H-1,3-benzodiazol-2-yl}amino)-2-[3-(trifluoromethoxy)phenyl]propan-1-ol]
< 1 | Cc1cn(Cc2cccc3[nH]c(NC(C)(CO)c4cccc(OC(F)(F)F)c4)nc23)c(=N)o1 (single isomer, unassigned; (-)) [Example 30a, (−)-2-({4-[(2-imino-5-methyl-2,3-dihydro-1,3-oxazol-3-yl)methyl]-1H-1,3-benzodiazol-2-yl}amino)-2-[3-(trifluoromethoxy)-phenyl]propan-1-ol]
< 1 | Cc1coc(=N)n1Cc1cccc2[nH]c(NC(C)(CO)c3cccc(OC(F)(F)F)c3)nc12 (stereo not shown) [Example 29, 2-({4-[(2-imino-4-methyl-2,3-dihydro-1,3-oxazol-3-yl)methyl]-1H-1,3-benzodiazol-2-yl}amino)-2-[3-(trifluoromethoxy)phenyl]propan-1-ol]
< 30 | CC(CO)(Nc1nc2c(CNc3ccon3)cccc2[nH]1)c1ccc(Cl)c(F)c1 (single isomer, unassigned) [Example 44a]
< 1 | CC(Nc1nc2c(Cn3ccoc3=N)cccc2[nH]1)c1cccc(C(F)(F)F)c1 (stereo not shown) [Example 4, 4-[(2-imino-2,3-dihydro-1,3-oxazol-3-yl)methyl]-N-{1-[3-(trifluoromethyl)phenyl]ethyl}-1H-1,3-benzodiazol-2-amine]
< 1 | CC(CO)(Nc1nc2c(Cn3ccoc3=N)cccc2[nH]1)c1cccc(Cl)c1 (stereo not shown) [Example 3, 2-(3-chlorophenyl)-2-({4-[(2-imino-2,3-dihydro-1,3-oxazol-3-yl)methyl]-1H-1,3-benzodiazol-2-yl}amino)propan-1-ol]
< 30 | CC(CO)(Nc1nc2c(CN3CCCC3=O)cccc2[nH]1)c1ccc(F)c(Cl)c1 (stereo not shown) [Example 37, 1-[(2-{[2-(3-chloro-4-fluorophenyl)-1-hydroxypropan-2-yl]amino}-1H-1,3-benzodiazol-4-yl)methyl]pyrrolidin-2-one]
< 30 | CC(CO)(Nc1nc2c(Cn3ccoc3=N)cccc2[nH]1)c1ccc(F)c(Cl)c1 (single isomer, unassigned; (+)) [Example 8b, (+)-2-(3-chloro-4-fluorophenyl)-2-({4-[(2-imino-2,3-dihydro-1,3-oxazol-3-yl)methyl]-1H-1,3-benzodiazol-2-yl}amino)propan-1-ol]
< 30 | Cc1cc(NCc2cccc3[nH]c(NC(C)(CO)c4ccc(F)c(Cl)c4)nc23)no1 (single isomer, unassigned; (+)) [Example 12b, (+)-2-(3-chloro-4-fluorophenyl)-2-((4-(((5-methylisoxazol-3-yl)amino)methyl)-1H-benzo[d]imidazol-2-yl)amino)propan-1-ol]
< 1 | CC(CO)(Nc1nc2c(Cn3ccoc3=N)cccc2[nH]1)c1cc(Cl)ccc1F (single isomer, unassigned) [Example 47a]
< 30 | CCC(CO)(Nc1nc2c(Cn3ccoc3=N)cccc2[nH]1)c1cccc(C(F)(F)F)c1 (stereo not shown) [Example 25, 2-({4-[(2-imino-2,3-dihydro-1,3-oxazol-3-yl)methyl]-1H-1,3-benzodiazol-2-yl}amino)-2-[3-(trifluoromethyl)phenyl]butan-1-ol]
< 1 | Cc1coc(=N)n1Cc1cccc2[nH]c(NC(C)(CO)c3cccc(C(F)(F)F)c3)nc12 (single isomer, unassigned; (-)) [Example 23a, (−)-2-({4-[(2-imino-4-methyl-2,3-dihydro-1,3-oxazol-3-yl)methyl]-1H-1,3-benzodiazol-2-yl}amino)-2-[3-(trifluoromethyl)phenyl]propan-1-ol]
< 30 | CC(CCO)(Nc1nc2c(Cn3ccoc3=N)cccc2[nH]1)c1cccc(C(F)(F)F)c1 (stereo not shown) [Example 26, 3-({4-[(2-imino-2,3-dihydro-1,3-oxazol-3-yl)methyl]-1H-1,3-benzodiazol-2-yl}amino)-3-[3-(trifluoromethyl)phenyl]butan-1-ol]
< 30 | CC(CO)(Nc1nc2c(Cn3ccoc3=N)cccc2[nH]1)c1cc(F)cc(Cl)c1 (single isomer, unassigned; (+)) [Example 45b, (+)-2-(3-chloro-5-fluorophenyl)-2-({4-[(2-imino-2,3-dihydro-1,3-oxazol-3-yl)methyl]-1H-1,3-benzodiazol-2-yl}amino)propan-1-ol]
< 30 | CC(CO)(Nc1nc2c(CNc3ccon3)cccc2[nH]1)c1cccc(Cl)c1F (single isomer, unassigned) [Example 43a]
< 1 | Cc1cn(Cc2cccc3[nH]c(NC(C)(CO)c4cccc(C(F)(F)F)c4)nc23)c(=N)o1 (single isomer, unassigned; (+)) [Example 24b, (+)-2-({4-[(2-imino-5-methyl-2,3-dihydro-1,3-oxazol-3-yl)methyl]-1H-1,3-benzodiazol-2-yl}amino)-2-[3-(trifluoromethyl)-phenyl]propan-1-ol]
< 30 | Cc1nc(NCc2cccc3[nH]c(NC(C)(CO)c4ccc(F)c(Cl)c4)nc23)no1 (stereo not shown) [Example 15, 2-(3-chloro-4-fluorophenyl)-2-[(4-{[(5-methyl-1,2,4-oxadiazol-3-yl)amino]methyl}-1H-1,3-benzodiazol-2-yl)amino]propan-1-ol]
< 1 | CC(CO)(Nc1nc2c(Cn3ccoc3=N)cccc2[nH]1)c1cc(F)cc(Cl)c1 (single isomer, unassigned) [Example 45a]
< 30 | CC(CO)(Nc1nc2c(Cn3ccoc3=N)cccc2[nH]1)c1cccc(OC(F)(F)F)c1 (single isomer, unassigned) [Example 27b]
< 1 | Cc1oc(=N)n(Cc2cccc3[nH]c(NC(C)(CO)c4ccc(F)c(Cl)c4)nc23)c1C (stereo not shown) [Example 20, 2-(3-chloro-4-fluorophenyl)-2-({4-[(2-imino-4,5-dimethyl-2,3-dihydro-1,3-oxazol-3-yl)methyl]-1H-1,3-benzodiazol-2-yl}amino)propan-1-ol]
< 30 | Cc1cn(Cc2cccc3[nH]c(NC(C)(CO)c4cccc(C(F)(F)F)c4)nc23)c(=N)o1 (single isomer, unassigned) [Example 24a]
< 30 | CC(CO)(Nc1nc2c(Cn3ccoc3=N)cccc2[nH]1)c1cccc(C(F)(F)F)c1 (single isomer, unassigned; (+)) [Example 18b, (+)-2-({4-[(2-imino-2,3-dihydro-1,3-oxazol-3-yl)methyl]-1H-1,3-benzodiazol-2-yl}amino)-2-[3-(trifluoromethyl)-phenyl]propan-1-ol]
< 1 | Cc1coc(=N)n1Cc1cccc2[nH]c(NC(C)(CO)c3cccc(Cl)c3)nc12 (stereo not shown) [Example 5, 2-(3-chlorophenyl)-2-({4-[(2-imino-4-methyl-2,3-dihydro-1,3-oxazol-3-yl)methyl]-1H-1,3-benzodiazol-2-yl}amino)propan-1-ol]
< 1 | Cc1cc(NCc2cccc3[nH]c(NC(C)(CO)c4ccc(F)c(Cl)c4)nc23)no1 (stereo not shown) [Example 12, 2-(3-chloro-4-fluorophenyl)-2-[(4-{[(5-methyl-1,2-oxazol-3-yl)amino]methyl}-1H-1,3-benzodiazol-2-yl)amino]propan-1-ol]
< 30 | CC(CO)(Nc1nc2c(CNc3ncco3)cccc2[nH]1)c1ccc(F)c(Cl)c1 (stereo not shown) [Example 38, 2-(3-chloro-4-fluorophenyl)-2-[(4-{[(1,3-oxazol-2-yl)amino]methyl}-1H-1,3-benzodiazol-2-yl)amino]propan-1-ol]
< 30 | CC(CO)(Nc1nc2c(Cn3cc[nH]c3=O)cccc2[nH]1)c1ccc(F)c(Cl)c1 (stereo not shown) [Example 33, 1-[(2-{[2-(3-chloro-4-fluorophenyl)-1-hydroxypropan-2-yl]amino}-1H-1,3-benzodiazol-4-yl)methyl]-2,3-dihydro-1H-imidazol-2-one]
< 1 | Cc1coc(=N)n1Cc1cccc2[nH]c(NC(C)(CO)c3ccc(F)c(Cl)c3)nc12 (stereo not shown) [Example 13, 2-(3-chloro-4-fluorophenyl)-2-({4-[(2-imino-4-methyl-2,3-dihydro-1,3-oxazol-3-yl)methyl]-1H-1,3-benzodiazol-2-yl}amino)propan-1-ol]
< 1 | CC(CO)(Nc1nc2c(CNc3ccon3)cccc2[nH]1)c1ccc(F)c(Cl)c1 (stereo not shown) [Example 9, 2-(3-chloro-4-fluorophenyl)-2-[(4-{[(1,2-oxazol-3-yl)amino]methyl}-1H-1,3-benzodiazol-2-yl)amino]propan-1-ol]
